In ChEMBL document CHEMBL2434882, “A novel [1,2,4] triazolo [1,5-a] pyrimidine-based phenyl-linked steroid dimer: synthesis and its cytotoxic activity” (Eur J Med Chem, 2013):
Activity calls are given as the source filed them. The calls are words filed in the database; no cut-off is given here.

Experiments:
[1] = Cell cycle arrest in human EC109 cells assessed as accumulation at G0/G1 phase at 10 uM after 24 hrs by propidium iodide staining-based flow cytometric analysis (reference value: 51.57%); format: functional; details: ECa-109
[2] = Cell cycle arrest in human EC109 cells assessed as accumulation at G2/M phase at 2.5 to 10 uM by propidium iodide staining-based flow cytometric analysis; format: functional; details: ECa-109, TDE = time-dependent effect
[3] = Downregulation of MDM2 protein expression in human EC109 cells at 5 to 10 uM after 24 hrs by Western blot analysis; format: functional, cell-based; details: ECa-109
[4] = Cell cycle arrest in human EC109 cells assessed as accumulation at S phase at 5 uM after 24 hrs by propidium iodide staining-based flow cytometric analysis (reference value: 37.99%); format: functional; details: ECa-109
[5] = Cell cycle arrest in human EC109 cells assessed as accumulation at S phase at 2.5 uM after 12 hrs by propidium iodide staining-based flow cytometric analysis (reference value: 33.29%); format: functional; details: ECa-109
ECa-109 cell line [6] = assay: Induction of apoptosis in human EC109 cells assessed as damaged cells at 40 uM after 12 hrs by annexin V-FITC/propidium iodide staining-based flow cytometric analysis (reference value: 0.4%); format: functional
ECa-109 cell line [7] = assay: Induction of apoptosis in human EC109 cells assessed as late apoptotic cells at 10 uM after 24 hrs by annexin V-FITC/propidium iodide staining-based flow cytometric analysis (reference value: 2.5%); format: functional
ECa-109 cell line [8] = assay: Induction of apoptosis in human EC109 cells assessed as late apoptotic cells at 40 uM after 12 hrs by annexin V-FITC/propidium iodide staining-based flow cytometric analysis (reference value: 1.4%); format: functional
ECa-109 cell line [9] = assay: Induction of apoptosis in human EC109 cells assessed as damaged cells at 20 uM after 24 hrs by annexin V-FITC/propidium iodide staining-based flow cytometric analysis (reference value: 0.1%); format: functional
ECa-109 cell line [10] = assay: Induction of apoptosis in human EC109 cells assessed as induction of cytochrome c release from mitochondria at 5 to 10 uM after 24 hrs by Western blot analysis; format: functional, cell-based
[11] = Upregulation of Bax protein expression in human EC109 cells at 5 to 10 uM after 24 hrs by Western blot analysis; format: functional, cell-based; details: ECa-109
ECa-109 cell line [12] = assay: Induction of apoptosis in human EC109 cells assessed as live cells at 40 uM after 12 hrs by annexin V-FITC/propidium iodide staining-based flow cytometric analysis (reference value: 92.1%); format: functional
ECa-109 cell line [13] = assay: Induction of apoptosis in human EC109 cells assessed as damaged cells at 5 uM after 12 hrs by annexin V-FITC/propidium iodide staining-based flow cytometric analysis (reference value: 0.4%); format: functional
[14] = Selectivity ratio of IC50 for human L02 cells to IC50 for human SMMC7721 cells; format: cell-based, SMMC-7721; details: L02 cells versus SMMC7721 cells, read-out: Ratio IC50
ECa-109 cell line [15] = assay: Induction of apoptosis in human EC109 cells assessed as early apoptotic cells at 5 uM after 24 hrs by annexin V-FITC/propidium iodide staining-based flow cytometric analysis (reference value: 3.8%); format: functional
ECa-109 cell line [16] = assay: Induction of apoptosis in human EC109 cells assessed as damaged cells at 10 uM after 12 hrs by annexin V-FITC/propidium iodide staining-based flow cytometric analysis (reference value: 0.4%); format: functional
ECa-109 cell line [17] = assay: Induction of apoptosis in human EC109 cells assessed as live cells at 2.5 uM after 12 hrs by annexin V-FITC/propidium iodide staining-based flow cytometric analysis (reference value: 92.1%); format: functional
ECa-109 cell line [18] = assay: Induction of apoptosis in human EC109 cells assessed as damaged cells at 2.5 uM after 24 hrs by annexin V-FITC/propidium iodide staining-based flow cytometric analysis (reference value: 0.1%); format: functional
ECa-109 cell line [19] = assay: Induction of apoptosis in human EC109 cells assessed as damaged cells at 5 uM after 24 hrs by annexin V-FITC/propidium iodide staining-based flow cytometric analysis (reference value: 0.1%); format: functional
ECa-109 cell line [20] = assay: Induction of apoptosis in human EC109 cells assessed as late apoptotic cells at 40 uM after 24 hrs by annexin V-FITC/propidium iodide staining-based flow cytometric analysis (reference value: 2.5%); format: functional
[21] = Cell cycle arrest in human EC109 cells assessed as accumulation at G2/M phase at 10 uM after 12 hrs by propidium iodide staining-based flow cytometric analysis (reference value: 13.72%); format: functional; details: ECa-109
ECa-109 cell line [22] = assay: Induction of apoptosis in human EC109 cells assessed as live cells at 10 uM after 24 hrs by annexin V-FITC/propidium iodide staining-based flow cytometric analysis (reference value: 93.6%); format: functional
ECa-109 cell line [23] = assay: Induction of apoptosis in human EC109 cells assessed as early apoptotic cells at 2.5 uM after 12 hrs by annexin V-FITC/propidium iodide staining-based flow cytometric analysis (reference value: 6.1%); format: functional
ECa-109 cell line [24] = assay: Induction of apoptosis in human EC109 cells assessed as early apoptotic cells at 10 uM after 24 hrs by annexin V-FITC/propidium iodide staining-based flow cytometric analysis (reference value: 3.8%); format: functional
[25] = Cell cycle arrest in human EC109 cells assessed as accumulation at G0/G1 phase at 2.5 uM after 24 hrs by propidium iodide staining-based flow cytometric analysis (reference value: 51.57%); format: functional; details: ECa-109
ECa-109 cell line [26] = assay: Induction of apoptosis in human EC109 cells assessed as damaged cells at 20 uM after 12 hrs by annexin V-FITC/propidium iodide staining-based flow cytometric analysis (reference value: 0.4%); format: functional
[27] = Upregulation of p53 protein expression in human EC109 cells at 5 to 10 uM after 24 hrs by Western blot analysis; format: functional, cell-based; details: ECa-109
ECa-109 cell line [28] = assay: Induction of apoptosis in human EC109 cells assessed as late apoptotic cells at 2.5 uM after 12 hrs by annexin V-FITC/propidium iodide staining-based flow cytometric analysis (reference value: 1.4%); format: functional
[29] = Cytotoxicity against human L02 cells assessed as cell viability at 20 uM after 72 hrs by MTT assay relative to control; format: cell-based; details: read-out: Activity
[30] = Cell cycle arrest in human EC109 cells assessed as accumulation at G2/M phase after 12 to 24 hrs by propidium iodide staining-based flow cytometric analysis; format: functional; details: ECa-109
ECa-109 cell line [31] = assay: Induction of apoptosis in human EC109 cells assessed as live cells at 40 uM after 24 hrs by annexin V-FITC/propidium iodide staining-based flow cytometric analysis (reference value: 93.6%); format: functional
[32] = Cell cycle arrest in human EC109 cells assessed as accumulation at S phase at 5 uM after 12 hrs by propidium iodide staining-based flow cytometric analysis (reference value: 33.29%); format: functional; details: ECa-109
ECa-109 cell line [33] = assay: Induction of apoptosis in human EC109 cells assessed as early apoptotic cells at 5 uM after 12 hrs by annexin V-FITC/propidium iodide staining-based flow cytometric analysis (reference value: 6.1%); format: functional
ECa-109 cell line [34] = assay: Induction of apoptosis in human EC109 cells assessed as live cells at 20 uM after 12 hrs by annexin V-FITC/propidium iodide staining-based flow cytometric analysis (reference value: 92.1%); format: functional
[35] = Cell cycle arrest in human EC109 cells assessed as accumulation at G0/G1 phase at 2.5 uM after 12 hrs by propidium iodide staining-based flow cytometric analysis (reference value: 50.87%); format: functional; details: ECa-109

In the case of C[C@]12CC[C@H](O)CC1=CC[C@@H]1[C@@H]2CC[C@]2(C)c3nc4ncnn4c(-c4cccc(-c5c6c(nc7ncnn57)[C@@]5(C)CC[C@H]7[C@@H](CC=C8C[C@@H](O)CC[C@@]87C)[C@@H]5C6)c4)c3C[C@@H]12, the Activity [1] is reported as 45%, the Activity [2] is reported as “tde” and the Activity [3] is reported as “Active”. It also gave an Activity [4] of 27%, an Activity [5] of 34.2% and an Activity (ECa-109 cell line [6]) of 7.9%. The Activity (ECa-109 cell line [7]) was 47.7%, the Activity (ECa-109 cell line [8]) was 65.3% and the Activity (ECa-109 cell line [9]) was 2.4%. For the same compound, the Activity (ECa-109 cell line [10]) was “Active”, the Activity [11] was “Active” and the Activity (ECa-109 cell line [12]) was 14.6%. The Activity (ECa-109 cell line [13]) was 2%, the selectivity ratio [14] was 49 and the Activity (ECa-109 cell line [15]) was 39.1%. It also gave an Activity (ECa-109 cell line [16]) of 2.7%, an Activity (ECa-109 cell line [17]) of 58.3% and an Activity (ECa-109 cell line [18]) of 0.2%. The Activity (ECa-109 cell line [19]) was 0.4%, the Activity (ECa-109 cell line [20]) was 78.4% and the Activity [21] was 28.3%. The Activity (ECa-109 cell line [22]) was 25.4%, the Activity (ECa-109 cell line [23]) was 26.9% and the Activity (ECa-109 cell line [24]) was 24%. For the same compound, the Activity [25] was 52.5%, the Activity (ECa-109 cell line [26]) was 2.1% and the Activity [27] was “Active”. For the same compound, the Activity (ECa-109 cell line [28]) was 13.1%, the viability at 72 h, 20 µM [29] was 70% and the Activity [30] was “Dose-dependent effect”. The Activity (ECa-109 cell line [31]) was 8.3%, the Activity [32] was 29.5% and the Activity (ECa-109 cell line [33]) was 24.1%. The Activity (ECa-109 cell line [34]) was 12.8% and the Activity [35] was 48.5%.
